Numbers after ± are expanded uncertainties.
Assay: activity coefficient (dimensionless); of the first substance listed, at infinite dilution; xn = mol fraction of the nth substance listed
Conditions: 101 kPa, Liquid, Chromatography, x1 = 0

Row | Structure (SMILES) | activity coefficient (358.15 K) | activity coefficient (368.15 K) | activity coefficient (378.15 K) | activity coefficient (388.15 K) | activity coefficient (398.15 K) | activity coefficient (408.15 K) | activity coefficient (418.15 K) | activity coefficient (428.15 K)
1 | c1ccsc1 [thiophene] + CCCCn1cc[n+](C)c1.[Cl-] | 2.04 ± 0.14 | 2.16 ± 0.15 | 2.27 ± 0.15 | 2.41 ± 0.16 |  |  |  | 
2 | CC(C)CO [2-methyl-1-propanol] + CCCCn1cc[n+](C)c1.CS(=O)(=O)[O-] |  |  |  |  | 0.893 ± 0.057 | 0.938 ± 0.059 | 0.991 ± 0.062 | 1.04 ± 0.066
3 | C=CCCCC [hex-1-ene] + CCCCn1cc[n+](C)c1.[Cl-] | 61.7 ± 4.2 | 57.9 ± 4 | 53.9 ± 3.7 | 52 ± 3.6 |  |  |  | 
4 | CCC(=O)OC [methyl propanoate] + CCCCn1cc[n+](C)c1.[Cl-] | 8 ± 0.55 | 8.09 ± 0.55 | 8.2 ± 0.56 | 8.31 ± 0.57 |  |  |  | 
5 | C=COC(C)=O [vinyl acetate] + CCCCn1cc[n+](C)c1.CS(=O)(=O)[O-] | 3.47 ± 0.24 | 3.58 ± 0.24 | 3.76 ± 0.26 | 3.92 ± 0.27 |  |  |  | 
6 | CCC(C)O (centres undefined) [butan-2-ol] + CCCCn1cc[n+](C)c1.CS(=O)(=O)[O-] |  |  |  |  | 1.11 ± 0.071 | 1.18 ± 0.075 | 1.25 ± 0.081 | 1.33 ± 0.087
7 | CCC(C)(C)OC [2-methoxy-2-methylbutane] + CCCCn1cc[n+](C)c1.[Cl-] | 34 ± 2.3 | 33.1 ± 2.3 | 32.2 ± 2.2 | 32.1 ± 2.2 |  |  |  | 
8 | CCCC=O [butanal] + CCCCn1cc[n+](C)c1.COP(=O)([O-])OC | 2.66 ± 0.18 | 2.74 ± 0.19 | 2.82 ± 0.19 | 2.97 ± 0.2 |  |  |  | 
9 | C=Cc1ccccc1 [styrene] + CCCCn1cc[n+](C)c1.[Cl-] | 4.96 ± 0.34 | 5.18 ± 0.35 | 5.42 ± 0.37 | 5.73 ± 0.39 |  |  |  | 
10 | COC(C)=O [methyl ethanoate] + CCCCn1cc[n+](C)c1.CS(=O)(=O)[O-] | 2.94 ± 0.2 | 3.03 ± 0.21 | 3.14 ± 0.21 | 3.33 ± 0.23 |  |  |  | 
11 | C#CCCCCC [1-heptyne] + CCCCn1cc[n+](C)c1.COP(=O)([O-])OC | 4.21 ± 0.29 | 4.48 ± 0.31 | 4.7 ± 0.32 | 4.93 ± 0.34 |  |  |  | 
12 | C=CCCCC [hex-1-ene] + CCCCn1cc[n+](C)c1.CS(=O)(=O)[O-] | 39.7 ± 2.7 | 40 ± 2.7 | 40 ± 2.7 | 40.3 ± 2.8 |  |  |  | 
13 | CCOC(C)(C)C [2-ethoxy-2-methylpropane] + CCCCn1cc[n+](C)c1.COP(=O)([O-])OC | 12.8 ± 0.87 | 12.8 ± 0.87 | 12.9 ± 0.88 | 12.9 ± 0.88 |  |  |  | 
14 | C1COCCO1 [1,4-dioxane] + CCCCn1cc[n+](C)c1.COP(=O)([O-])OC | 2.13 ± 0.14 | 2.19 ± 0.15 | 2.25 ± 0.15 | 2.37 ± 0.16 |  |  |  | 
15 | c1ccsc1 [thiophene] + CCCCn1cc[n+](C)c1.COP(=O)([O-])OC | 1.24 ± 0.08 | 1.35 ± 0.09 | 1.43 ± 0.09 | 1.53 ± 0.1 |  |  |  | 
16 | C#CCCCCC [1-heptyne] + CCCCn1cc[n+](C)c1.CS(=O)(=O)[O-] | 12 ± 0.82 | 12.6 ± 0.86 | 13.3 ± 0.91 | 14.1 ± 0.96 |  |  |  | 
17 | C1COCCO1 [1,4-dioxane] + CCCCn1cc[n+](C)c1.[Cl-] | 3.47 ± 0.24 | 3.55 ± 0.24 | 3.65 ± 0.25 | 3.74 ± 0.25 |  |  |  | 
18 | C1=CCCCC1 [cyclohexene] + CCCCn1cc[n+](C)c1.[Cl-] | 22.8 ± 1.6 | 22.3 ± 1.5 | 21.5 ± 1.5 | 21.3 ± 1.5 |  |  |  | 
19 | CC#N [acetonitrile] + CCCCn1cc[n+](C)c1.[Cl-] | 1.12 ± 0.07 | 1.16 ± 0.07 | 1.21 ± 0.08 | 1.28 ± 0.08 |  |  |  | 
20 | CC(C)CO [2-methyl-1-propanol] + CCCCn1cc[n+](C)c1.COP(=O)([O-])OC |  |  |  |  | 0.23 ± 0.029 | 0.254 ± 0.03 | 0.281 ± 0.03 | 0.313 ± 0.031
21 | CC(C)(C)O [2-methylpropan-2-ol] + CCCCn1cc[n+](C)c1.CS(=O)(=O)[O-] |  |  |  |  | 1.28 ± 0.083 | 1.39 ± 0.09 | 1.48 ± 0.098 | 1.59 ± 0.11
22 | Cc1ccc(C)cc1 [1,4-dimethylbenzene] + CCCCn1cc[n+](C)c1.COP(=O)([O-])OC | 6.31 ± 0.43 | 6.44 ± 0.44 | 6.59 ± 0.45 | 6.86 ± 0.47 |  |  |  | 
23 | CC(C)OC(C)C [diisopropyl ether] + CCCCn1cc[n+](C)c1.COP(=O)([O-])OC | 14.4 ± 0.98 | 14.3 ± 0.97 | 14.2 ± 0.97 | 14.1 ± 0.96 |  |  |  | 

Row | Structure (SMILES) | activity coefficient (358.15 K) | activity coefficient (368.15 K) | activity coefficient (378.15 K) | activity coefficient (388.15 K) | activity coefficient (398.15 K) | activity coefficient (408.15 K) | activity coefficient (418.15 K) | activity coefficient (428.15 K)
24 | CC1CCCCC1 [methylcyclohexane] + CCCCn1cc[n+](C)c1.[Cl-] | 84.2 ± 5.8 | 79 ± 5.4 | 73 ± 5 | 69.8 ± 4.8 |  |  |  | 
25 | COC(C)(C)C [2-methoxy-2-methylpropane] + CCCCn1cc[n+](C)c1.CS(=O)(=O)[O-] | 17 ± 1.2 | 17.4 ± 1.2 | 17.9 ± 1.2 | 18.6 ± 1.3 |  |  |  | 
26 | c1ccsc1 [thiophene] + CCCCn1cc[n+](C)c1.CS(=O)(=O)[O-] | 1.72 ± 0.12 | 1.81 ± 0.12 | 1.94 ± 0.13 | 2.05 ± 0.14 |  |  |  | 
27 | CC(C)O [propan-2-ol] + CCCCn1cc[n+](C)c1.COP(=O)([O-])OC |  |  |  |  | 0.256 ± 0.03 | 0.282 ± 0.03 | 0.311 ± 0.031 | 0.344 ± 0.032
28 | CO [methanol] + CCCCn1cc[n+](C)c1.COP(=O)([O-])OC |  |  |  |  | 0.097 ± 0.03 | 0.105 ± 0.03 | 0.115 ± 0.03 | 0.125 ± 0.03
29 | C=CCCCCC [1-heptene] + CCCCn1cc[n+](C)c1.CS(=O)(=O)[O-] | 59.2 ± 4.1 | 58.9 ± 4 | 58.7 ± 4 | 58 ± 4 |  |  |  | 
30 | CCOCC [diethyl ether] + CCCCn1cc[n+](C)c1.[Cl-] | 19.3 ± 1.3 | 18.9 ± 1.3 | 18.4 ± 1.3 | 18.4 ± 1.3 |  |  |  | 
31 | CCOCC [diethyl ether] + CCCCn1cc[n+](C)c1.CS(=O)(=O)[O-] | 14.7 ± 1 | 14.9 ± 1 | 15 ± 1 | 15.3 ± 1.1 |  |  |  | 
32 | CCCCCCCCCC [decane] + CCCCn1cc[n+](C)c1.COP(=O)([O-])OC | 93.4 ± 6.4 | 88.5 ± 6.1 | 84.7 ± 5.8 | 81.6 ± 5.6 |  |  |  | 
33 | CCC(C)(C)OC [2-methoxy-2-methylbutane] + CCCCn1cc[n+](C)c1.COP(=O)([O-])OC | 9.5 ± 0.65 | 9.61 ± 0.66 | 9.66 ± 0.66 | 9.75 ± 0.67 |  |  |  | 
34 | CCC(=O)CC [pentan-3-one] + CCCCn1cc[n+](C)c1.CS(=O)(=O)[O-] | 4.68 ± 0.32 | 4.79 ± 0.33 | 4.88 ± 0.33 | 5.09 ± 0.35 |  |  |  | 
35 | C1CCCC1 [cyclopentane] + CCCCn1cc[n+](C)c1.CS(=O)(=O)[O-] | 23.9 ± 1.6 | 23.7 ± 1.6 | 23.5 ± 1.6 | 23.3 ± 1.6 |  |  |  | 
36 | CCCCO [butan-1-ol] + CCCCn1cc[n+](C)c1.COP(=O)([O-])OC |  |  |  |  | 0.247 ± 0.03 | 0.271 ± 0.03 | 0.299 ± 0.031 | 0.324 ± 0.032
37 | Cc1cccc(C)c1 [1,3-dimethylbenzene] + CCCCn1cc[n+](C)c1.COP(=O)([O-])OC | 6.49 ± 0.44 | 6.6 ± 0.45 | 6.73 ± 0.46 | 7 ± 0.48 |  |  |  | 
38 | CCCCCCCCC [nonane] + CCCCn1cc[n+](C)c1.COP(=O)([O-])OC | 67.9 ± 4.7 | 64 ± 4.4 | 61.5 ± 4.2 | 59.1 ± 4 |  |  |  | 
39 | C1CCCCCC1 [cycloheptane] + CCCCn1cc[n+](C)c1.COP(=O)([O-])OC | 15.1 ± 1 | 14.6 ± 1 | 14.3 ± 0.97 | 14 ± 0.96 |  |  |  | 
40 | CCCCCCCCCC [decane] + CCCCn1cc[n+](C)c1.CS(=O)(=O)[O-] | 371 ± 26 | 352 ± 24 | 340 ± 23 | 324 ± 22 |  |  |  | 
41 | CCCCCCCC [octane] + CCCCn1cc[n+](C)c1.COP(=O)([O-])OC | 47.9 ± 3.3 | 46.2 ± 3.2 | 44.6 ± 3 | 43.4 ± 3 |  |  |  | 
42 | CC#N [acetonitrile] + CCCCn1cc[n+](C)c1.CS(=O)(=O)[O-] | 0.99 ± 0.06 | 1.03 ± 0.06 | 1.08 ± 0.07 | 1.12 ± 0.07 |  |  |  | 
43 | CC(C)(C)O [2-methylpropan-2-ol] + CCCCn1cc[n+](C)c1.[Cl-] |  |  |  |  | 0.987 ± 0.062 | 1.07 ± 0.067 | 1.16 ± 0.074 | 1.27 ± 0.082
44 | c1ccncc1 [pyridine] + CCCCn1cc[n+](C)c1.COP(=O)([O-])OC | 1.18 ± 0.08 | 1.23 ± 0.08 | 1.28 ± 0.08 | 1.35 ± 0.09 |  |  |  | 
45 | CCCCCCCC [octane] + CCCCn1cc[n+](C)c1.CS(=O)(=O)[O-] | 171 ± 12 | 165 ± 11 | 160 ± 11 | 155 ± 11 |  |  |  | 
46 | COC(C)(C)C [2-methoxy-2-methylpropane] + CCCCn1cc[n+](C)c1.[Cl-] | 24.6 ± 1.7 | 23.8 ± 1.6 | 23 ± 1.6 | 22.9 ± 1.6 |  |  |  | 
